Laboratory results published in US9682995B2, “Amino-substituted isothiazoles” (BAYER PHARMA AKTIENGESELLSCHAFT, priority 2013, dated 2017).

Tests used:
[1] = test system: spindle assembly checkpoint; experiment: SAC-Formation - Paclitaxel-Induced Assay; assay type: cell-based; settings: Homo sapiens; HeLa cells, paclitaxel 0.05 μM, 24 h, phosphorylated histone H3 on serine 10
In short: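 HeLa cells were plated overnight, then given paclitaxel (0.05 μM final) plus compound (0.005-20 μM, 0.5% DMSO) for 24 h at 37° C. Fixed cells were stained for phospho-histone H3 Ser10 and with Hoechst, then imaged to give mitotic index. A fall in mitotic cells marks SAC breakthrough, and values were fit with a four-parameter Hill equation.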

human kinase Mps-1 = human kinase Mps-1 (Homo sapiens (Human), UniProt P33981); experiment: Mps-1 kinase assay (TR-FRET); assay type: biochemical; settings: 10 μM ATP; read-out: Mps1 avg (IC50 [mol/l])
In short: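 GST-tagged full-length human Mps-1 (~0.5 nM) preincubated 15 min with compound, then reacted 60 min at 22 °C with 10 μM ATP and 1 μM biotinylated peptide in Hepes pH 7.7 buffer. Phosphoproduct detected by TR-FRET (Eu anti-phospho-Ser/Thr, SA-XLent); 665/620 ratio normalised to no-inhibitor and no-enzyme controls.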

human kinase Mps-1, sequence (P33981 whole entry): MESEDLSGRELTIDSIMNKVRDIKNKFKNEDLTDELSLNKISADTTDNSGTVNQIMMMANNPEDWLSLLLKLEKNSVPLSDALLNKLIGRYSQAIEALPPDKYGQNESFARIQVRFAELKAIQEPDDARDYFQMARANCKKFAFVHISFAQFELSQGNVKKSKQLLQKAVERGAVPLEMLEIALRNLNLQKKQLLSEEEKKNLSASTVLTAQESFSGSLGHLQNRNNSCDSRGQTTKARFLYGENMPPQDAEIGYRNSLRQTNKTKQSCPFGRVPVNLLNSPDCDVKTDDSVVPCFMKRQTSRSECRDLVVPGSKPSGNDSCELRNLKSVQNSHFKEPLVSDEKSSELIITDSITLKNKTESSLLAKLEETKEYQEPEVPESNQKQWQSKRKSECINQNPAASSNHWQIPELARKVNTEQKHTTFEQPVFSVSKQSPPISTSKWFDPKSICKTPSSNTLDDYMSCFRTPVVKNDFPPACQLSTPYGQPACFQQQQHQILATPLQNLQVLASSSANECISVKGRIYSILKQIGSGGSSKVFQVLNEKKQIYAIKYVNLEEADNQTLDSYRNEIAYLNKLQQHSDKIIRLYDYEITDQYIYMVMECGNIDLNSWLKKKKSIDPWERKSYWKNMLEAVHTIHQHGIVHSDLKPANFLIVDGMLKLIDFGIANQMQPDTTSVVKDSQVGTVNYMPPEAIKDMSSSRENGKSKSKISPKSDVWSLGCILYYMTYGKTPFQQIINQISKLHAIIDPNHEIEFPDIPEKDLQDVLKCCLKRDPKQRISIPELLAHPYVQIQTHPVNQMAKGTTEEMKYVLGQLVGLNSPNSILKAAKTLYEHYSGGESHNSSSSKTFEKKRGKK

Row | SMILES | IC50 [1] [nM] | IC50 (human kinase Mps-1) [µM]
1 | Cc1nsc(Nc2cnc(C(F)(F)F)cn2)c1C(=O)Nc1ccc(F)c(F)c1 [Example 81, N-(3,4-Difluorophenyl)-3-methyl-5-{[5-(trifluoromethyl)pyrazin-2-yl]amino}-1,2-thiazole-4-carboxamide] | 16 | > 20
2 | Cc1nsc(Nc2cncc(Cl)n2)c1C(=O)Nc1ccc(F)c(F)c1 [Example 71, 5-[(6-Chloropyrazin-2-yl)amino]-N-(3,4-difluorophenyl)-3-methyl-1,2-thiazole-4-carboxamide] | 84 | > 20
3 | CNC(=O)c1cncc(Nc2snc(C)c2C(=O)Nc2ccc(F)c(F)c2)n1 [Example 70, 6-({4-[(3,4-Difluorophenyl)carbamoyl]-3-methyl-1,2-thiazol-5-yl}amino)-N-methylpyrazine-2-carboxamide] | 940 | > 20
4 | CCOC(=O)c1cnc(Nc2snc(C)c2C(=O)Nc2ccccc2CC)s1 [Example 92, Ethyl 2-({4-[(2-ethylphenyl)-carbamoyl]-3-methyl-1,2-thiazol-5-yl}amino)-1,3-thiazole-5-carboxylate] | 5600 | > 20
5 | Cc1nsc(Nc2cncc(-c3ncco3)n2)c1C(=O)Nc1ccc(Cl)c(F)c1 [Example 63, N-(4-Chloro-3-fluorophenyl)-3-methyl-5-{[6-(1,3-oxazol-2-yl)pyrazin-2-yl]amino}-1,2-thiazole-4-carboxamide] | 360 | > 20
6 | CCc1ccccc1NC(=O)c1c(C)nsc1Nc1nc(C(=O)OC)co1 [Example 91, Methyl 2-({4-[(2-ethylphenyl)carbamoyl]-3-methyl-1,2-thiazol-5-yl}amino)-1,3-oxazole-4-carboxylate] | 1400 | –
7 | CCc1cnc(Nc2snc(C)c2C(=O)Nc2ccc(F)c(F)c2)cn1 [Example 79, N-(3,4-Difluorophenyl)-5-[(5-ethylpyrazin-2-yl)amino]-3-methyl-1,2-thiazole-4-carboxamide] | 150 | > 20
8 | COC(=O)c1cnc(Nc2snc(C)c2C(=O)Nc2ccc(F)c(F)c2)cn1 [Example 59, Methyl 5-({4-[(3,4-difluorophenyl)carbamoyl]-3-methyl-1,2-thiazol-5-yl}amino)-pyrazine-2-carboxylate] | 260 | > 20
9 | COc1ccc(NC(=O)c2c(C)nsc2Nc2ncc(C(=O)N3CCOCC3)s2)cc1F [Example 93, N-(3-Fluoro-4-methoxyphenyl)-3-methyl-5-{[5-(morpholin-4-ylcarbonyl)-1,3-thiazol-2-yl]amino}-1,2-thiazole-4-carboxamide] | 8000 | > 20
10 | CCc1ccccc1NC(=O)c1c(C)nsc1Nc1nccc(-c2ccccc2)n1 [Example 5, N-(2-Ethylphenyl)-3-methyl-5-[(4-phenylpyrimidin-2-yl)amino]-1,2-thiazole-4-carboxamide] | > 20000 | > 20
11 | COc1cncc(Nc2snc(C)c2C(=O)Nc2ccc(F)c(F)c2)n1 [Example 72, N-(3,4-Difluorophenyl)-5-[(6-methoxypyrazin-2-yl)amino]-3-methyl-1,2-thiazole-4-carboxamide] | 20000 | > 20
12 | COc1ccc(NC(=O)c2c(C)nsc2Nc2nc3ccc(F)cc3s2)cn1 [Example 88, 5-[(6-Fluoro-1,3-benzothiazol-2-yl)amino]-N-(6-methoxypyridin-3-yl)-3-methyl-1,2-thiazole-4-carboxamide] | 1100 | –
13 | Cc1nsc(Nc2cncc(-n3cccn3)n2)c1C(=O)Nc1ccc(F)c(F)c1 [Example 64, N-(3,4-Difluorophenyl)-3-methyl-5-{[6-(1H-pyrazol-1-yl)pyrazin-2-yl]amino}-1,2-thiazole-4-carboxamide] | 110 | –
14 | COc1ccc2nc(Nc3snc(C)c3C(=O)Nc3ccc(OC)nc3)sc2c1 [Example 87, 5-[(6-Methoxy-1,3-benzothiazol-2-yl)amino]-N-(6-methoxypyridin-3-yl)-3-methyl-1,2-thiazole-4-carboxamide] | 350 | –
